The source of these data is article PMC5685716, “Oral 4-(N)-stearoyl gemcitabine nanoparticles inhibit tumor growth in mouse models” (Oncotarget, 2017).

For data set [1], the system named is TC-1 tumors. More on the design: method as in PMID 21371545, PMID 22471294. The settings on record: GemC18 dissolved in a Tween 20 solution; cited from earlier work.
Another data set has as its system LLC tumors. As to the kind of experiment: Antitumor activity in mice with LLC lung tumors. In kind it is in vivo, C57BL/6J mice. The settings on record: p.o. once in every two days, GemC18 250 μg/mouse, GemHCl 141.5 μg/mouse (molar equivalent). Here is the method:
LLC tumors were established in female C57BL/6J mice (6-8 week) from the Beijing Vital River Laboratory Animal Technology Co., Ltd. (Beijing, China). Mice were s.c. injected with LLC cells (5 × 10^5) in their back on day 0. On day 11, mice were randomized into groups (n = 8) and were treated by oral gavage with GemC18-SLNs, GemC18-free SLNs, GemC18 alone in a Tween 20 solution, GemHCl (molar equivalent of GemC18), all in a mannitol solution (5%, w/v). Control mice were orally gavaged with a mannitol solution (5%). Mice were treated once in every two days for 3 weeks. The dose of GemC18 was 250 μg/mouse, 141.5 μg/mouse for GemHCl (i.e. molar equivalent to 250 μg of GemC18). GemC18 was dissolved into 1% (v/v) Tween 20 in a 5% (w/v) mannitol solution to a proper concentration. Mouse health was monitored daily, and weight recorded. Tumor size was measured every other day. […] Microscopic images taken at 200 x magnification were analyzed using an Image-Pro Plus software (Media Cybernetics, Inc., Shanghai, China) to determine the percent of cells that are Ki67 positive, the microvessel density (MVD) in tumor tissues, and the optical density of the anti-caspase 3 staining.

For the next data set, the system named is HT-29 tumor cells. Also on record: method as in PMID 17352232. The settings on record: peritumoral injection, GemC18 in a Tween 80 solution; cited from earlier work.
In a further data set the test system is LLC cells. More on the design: method as in earlier work. The settings on record: 3 × 10^3 cells, 48 h incubation; cited from earlier work.
The subject of the next data set is B16F10 tumors. More on the design: method as in PMID 21371545, PMID 22471294. The settings on record: GemC18 dissolved in a Tween 20 solution; cited from earlier work.
Another data set concerns TC-1 tumor cells. More on the design: method as in PMID 23570983. The settings on record: 3 × 10^3 cells, 48 h of incubation; cited from earlier work.
On the set-up of data set [2]: method as in PMID 19860433, PMID 26806350. The settings on record: cited from earlier work.
Details of data set [3]: method as in PMID 19860433. The settings on record: mouse model, molar equivalent dose, cited from earlier work.
Details of data set [4]: method as in PMID 19860433, PMID 17090088. The settings on record: oral, animal (rodent) models; cited from earlier work.
On the set-up of data set [5]: method as in PMID 18473859, PMID 18474674. The settings on record: in water; cited from earlier work.
Another data set relates to leukemia. The settings on record: oral, rat leukemia model; cited from earlier work.
Data set [6] relates to TC-1 tumors. Description: Antitumor activity in mice with pre-established TC-1 tumors. The settings on record: p.o. once daily, GemC18 150 μg/mouse, gemcitabine HCl 85 μg/mouse (molar equivalent). In kind it is in vivo, C57BL/6 mice. The text has this: When TC-1 tumor cells were used, female C57BL/6 mice (18-20 g, 6-8 weeks, n = 5) were subcutaneously (s.c) injected with TC-1 cells (5 × 10^5 cells/mouse) in the right flank on day 0. Mouse hair was carefully trimmed at the injection site one day prior to the injection. Treatment with GemC18-SLNs, GemC18-in-vegetable oil (GemC18-in-oil), GemC18-free SLNs, all in a mannitol solution (5%, w/v), was started on day 11, and mice were orally gavaged daily until the endpoint (i.e. death, tumor size reaching 15 mm, tumor ulceration, body weight loss of more than 20%, or other signs of severe distress and discomfort). As controls, mice were orally gavaged with a mannitol solution (5%) or i.v. injected with the GemC18-SLNs, twice a week until the endpoint. The dose of GemC18 was 250 μg per mouse per dose for the oral route, 500 μg per mouse per dose for i.v. route. Tumor size was measured 2-3 times a week, and tumor volume was calculated as: volume (mm^3) = (length x width^2)/2. Mouse survival time was also recorded. In another study, TC-1 tumor-bearing female C57BL/6 mice were orally gavaged with GemC18-SLNs, GemC18-in-oil, vegetable oil alone (oil), or gemcitabine HCl (GemHCl, as a control), once daily. The dose of GemC18 was 150 μg per mouse per dose, and dose of GemHCl was 85 μg per mouse per dose (i.e. molar equivalent to the dose of GemC18).

Details of data set [7]: method as in PMID 18519780. The settings on record: human subjects, patients with advanced or metastatic cancer, estimated; cited from earlier work.

Structures are written as SMILES. In brackets after ≈: the same amount, converted by molar mass. Several values for one entry are separate records, joined by “and”; a condition that tells them apart may be missing. Equal values may be shown once. Where a name gives a salt, the structure may show the parent alone. Read-outs that look alike come from different tables or passages of the source. Some results are limits rather than exact numbers.

`CCCCCCCCCCCCCCCCCC(=O)Nc1ccn([C@@H]2OC(CO)C(O)C2(F)F)c(=O)n1` (stereo partly shown) [GemC18, 4-(N)-stearoyl gemcitabine]: the antitumor activity result in the data set with TC-1 tumors [1] and in the data set on B16F10 tumors was “did not show any significant antitumor activity” each time. Also, the LLC tumor growth entry with LLC tumors is listed as “also inhibited LLC tumor growth, but they were significantly less effective than oral GemC18-SLNs”. Also, in the data set on HT-29 tumor cells, the tumor growth entry is on record as “did not significantly affect the tumor growth”. Moreover, the half-maximal inhibitory concentration (IC50) – broadly, the concentration at which inhibition is half-maximal – in the data set with LLC cells was 130 ± 31.1 nM; in the data set with TC-1 tumor cells, 18.5 ± 1.7 nM. In addition, in data set [2], the solubility in water is 1.38 ± 1.60 µg/mL (≈ 2.61 µM).
`CCCC(CCC)C(=O)Nc1ccn([C@@H]2O[C@H](CO)[C@@H](O)C2(F)F)c(=O)n1` [LY2334737]: the “systemic exposure (AUC) vs oral gemcitabine” value is “higher systemic exposure of gemcitabine than oral free gemcitabine” in data set [3] (listed as LY2334734) and “significantly higher” in data set [3]. Besides, in data set [4], the “antitumor activity vs molar equivalent dose of gemcitabine” value was “stronger antitumor activity”. In data set [2], the solubility in water is more than 2000 µg/mL.
On to `CC(C)=CCC/C(C)=C/CC/C(C)=C/CC/C=C(\C)CC/C=C(\C)CCC(=O)Nc1ccn([C@@H]2O[C@H](CO)[C@@H](O)C2(F)F)c(=O)n1` [SQdFdC], for which the “size of self-assembled nanoparticles” value in [5] is on record as 100-300 nm. In addition, the “antitumor activity vs molar equivalent dose of gemcitabine” value in data set [4] is on record as “stronger antitumor activity”. For the same compound, the antitumor activity entry with leukemia is “potent antitumor activity”.
On to `Nc1ccn([C@@H]2O[C@H](CO)[C@@H](O)C2(F)F)c(=O)n1` [gemcitabine HCl], for which the TC-1 tumor growth result with TC-1 tumors [6] was “significantly less effective than the GemC18-SLNs”. The LLC tumor growth entry with LLC tumors is listed as “also inhibited LLC tumor growth, but they were significantly less effective than oral GemC18-SLNs”. For the same compound, the IC50 in the data set with LLC cells was 23.4 ± 6.7 nM.
On to `Nc1ccn([C@@H]2O[C@H](CO)[C@@H](O)C2(F)F)c(=O)n1` [gemcitabine, 2′,2′-difluorodeoxycytidine], for which the oral bioavailability in [7] was 10% and ~ 10%. In addition, the IC50 with TC-1 tumor cells is 10.6 ± 1.1 nM.
